Earlier results as cited in patent US6461634B1, “Food-based delivery of HGH-stimulating and other nutritional supplements” (priority 1999, dated 2002).

System: HGH
Conditions: 5 mg melatonin taken orally one hour prior to vigorous exercise, versus vigorous exercise alone; healthy adult male subjects

For `COc1ccc2[nH]cc(CCNC(C)=O)c2c1` [melatonin], the “increase in HGH resulting from vigorous exercise” value is listed as “triple”.
